Results as given in patent US8883963B2 (Cadila Healthcare Limited, priority 2007, dated 2014).

Key:
[1] = test system: RIN5F (Rat Insulinoma) cells; experiment: In vitro glucose-dependent insulin secretion (RIN5F cell assay screening protocol); format: cell-based; conditions: 16.7 mM glucose load
Human GLP-1 receptor = biological target: T1, Human GLP-1 receptor (Homo sapiens, UniProt P43220); experiment: In vitro Human GLP-1 R agonist activity (cyclic AMP determination) in CHO/human GLP1R cells; format: cell-based
T1 construct: The full-length cDNA was cloned in pcDNA3.1(+); expressed in transfected cells
T1 sequence (P43220 24-463): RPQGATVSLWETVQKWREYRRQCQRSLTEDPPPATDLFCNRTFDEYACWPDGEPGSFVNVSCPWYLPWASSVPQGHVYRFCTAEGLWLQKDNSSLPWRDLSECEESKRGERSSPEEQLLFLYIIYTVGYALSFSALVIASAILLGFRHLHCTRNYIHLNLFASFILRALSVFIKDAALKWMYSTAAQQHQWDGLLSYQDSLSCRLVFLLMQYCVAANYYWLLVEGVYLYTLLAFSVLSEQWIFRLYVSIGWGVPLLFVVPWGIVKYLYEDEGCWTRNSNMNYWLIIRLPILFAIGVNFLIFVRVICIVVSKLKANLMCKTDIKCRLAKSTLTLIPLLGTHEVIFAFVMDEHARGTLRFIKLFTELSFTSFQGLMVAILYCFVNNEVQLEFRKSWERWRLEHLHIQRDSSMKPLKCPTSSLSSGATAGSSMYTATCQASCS

human glucagon receptor = biological target: T2, human glucagon receptor (Homo sapiens, UniProt P47871); experiment: In vitro human glucagon antagonist activity (inhibition of cAMP production) in CHO/human glucagon R cells; format: cell-based; conditions: with saturated concentration of glucagon peptide
T2 construct: The full-length cDNA was cloned in pcDNA3.1 (Invitrogen); expressed in transfected cells
T2 sequence (P47871 26-477): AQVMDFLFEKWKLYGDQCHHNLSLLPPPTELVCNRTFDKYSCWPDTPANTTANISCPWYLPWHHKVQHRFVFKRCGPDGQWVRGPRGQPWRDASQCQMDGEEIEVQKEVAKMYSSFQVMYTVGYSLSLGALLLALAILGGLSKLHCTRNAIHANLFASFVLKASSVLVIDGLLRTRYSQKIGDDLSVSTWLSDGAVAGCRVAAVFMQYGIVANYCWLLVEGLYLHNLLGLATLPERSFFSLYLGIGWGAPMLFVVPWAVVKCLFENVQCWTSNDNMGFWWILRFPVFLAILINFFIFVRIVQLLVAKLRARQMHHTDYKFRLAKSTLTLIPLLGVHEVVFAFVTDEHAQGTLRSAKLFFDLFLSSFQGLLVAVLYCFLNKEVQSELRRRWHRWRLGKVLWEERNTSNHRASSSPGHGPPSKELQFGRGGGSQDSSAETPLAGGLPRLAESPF

DPP IV = DPP IV (Homo sapiens, UniProt P27487); experiment: Stability against DPP IV enzyme; format: in vitro ADME; conditions: 37° C.; for % degradation of peptidomimetics in 24 h when incubated with DPP-IV enzyme: 2 μM peptidomimetic; for half-life at 2 μM: DPP IV enzyme, pH 7.8, 2 μM peptidomimetic, read-out: half-life (t1/2) when incubated with DPP-IV enzyme
DPP IV, sequence (P27487 whole entry, species assumed): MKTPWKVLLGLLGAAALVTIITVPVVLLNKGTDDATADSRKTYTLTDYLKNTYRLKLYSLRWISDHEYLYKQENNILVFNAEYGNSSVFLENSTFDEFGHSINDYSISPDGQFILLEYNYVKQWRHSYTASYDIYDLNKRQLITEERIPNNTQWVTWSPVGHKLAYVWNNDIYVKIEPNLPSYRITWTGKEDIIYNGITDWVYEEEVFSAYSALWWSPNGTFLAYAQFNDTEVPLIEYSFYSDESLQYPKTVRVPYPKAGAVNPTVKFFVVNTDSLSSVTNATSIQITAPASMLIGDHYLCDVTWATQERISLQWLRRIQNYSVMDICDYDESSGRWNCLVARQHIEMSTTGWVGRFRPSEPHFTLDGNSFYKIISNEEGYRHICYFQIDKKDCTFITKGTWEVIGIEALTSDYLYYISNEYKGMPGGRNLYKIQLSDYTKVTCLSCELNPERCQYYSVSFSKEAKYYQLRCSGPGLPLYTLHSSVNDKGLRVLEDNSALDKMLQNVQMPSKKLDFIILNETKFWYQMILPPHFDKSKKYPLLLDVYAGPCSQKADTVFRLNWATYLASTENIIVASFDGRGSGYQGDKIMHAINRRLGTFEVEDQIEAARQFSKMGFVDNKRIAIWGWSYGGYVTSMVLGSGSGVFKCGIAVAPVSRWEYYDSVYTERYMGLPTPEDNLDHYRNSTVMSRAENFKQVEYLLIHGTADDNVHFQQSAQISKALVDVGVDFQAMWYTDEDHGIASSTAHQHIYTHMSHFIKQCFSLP
Method: (§1) Reactions were terminated by the addition of TFA/H2O (15 mL, 10% (v/v)). […] The column was equilibrated with TFA/H20, at a flow rate of 1 mL/min.

[2] = Stability in human plasma; format: in vitro ADME; conditions: 2 μM peptidomimetic, pooled human plasma, 37° C.; for half-life at 2 μM: pH 7.8, read-out: half-life (t1/2) when incubated with human plasma
Method: as §1

[3] = Stability in simulated gastric fluid; format: in vitro ADME; conditions: 2 μM peptidomimetic, simulated gastric fluid pH 1.5, 37° C.; for half-life at 2 μM: read-out: half-life (t1/2) when incubated with simulated gastric fluid
Method: as §1

[4] = Stability in simulated intestinal fluid; format: in vitro ADME; conditions: 2 μM peptidomimetic, simulated intestinal fluid pH 7.5, 37° C.; for half-life at 2 μM: read-out: half-life (t1/2) when incubated with simulated intestinal fluid
Method: as §1

[5] = Stability in liver microsomes; format: in vitro ADME; conditions: 2 μM peptidomimetic, human liver microsomes, 37° C.; for half-life at 2 μM: pH 7.8, read-out: half-life (t1/2) when incubated with liver microsomes
Method: as §1

SMILES | Insulin secretion ([1]; 0.1 nM test compd.) [pg/µg/h] | Insulin secretion ([1]; 1 nM test compd.) [pg/µg/h] | Insulin secretion ([1]; 10 nM test compd.) [pg/µg/h] | Human GLP-1 R activity (cAMP release), % activity with respect to control (Human GLP-1 receptor; 1 nM test compound) [%] | Human GLP-1 R activity (cAMP release), % activity with respect to control (Human GLP-1 receptor; 10 nM test compound) [%] | Human GLP-1 R activity (cAMP release), % activity with respect to control (Human GLP-1 receptor; 100 nM test compound) [%] | Human GLP-1 R activity (cAMP release), % activity with respect to control (Human GLP-1 receptor; 1 μM test compound) [%] | Human GLP-1 R activity (cAMP release), % activity with respect to control (Human GLP-1 receptor; 10 μM test compound) [%] | Human Glucagon receptor antagonistic activity shown as inhibition of cAMP production of Glucagon peptide (human glucagon receptor; 1 nM test compound) [pmol/ml/μg prt] | Human Glucagon receptor antagonistic activity shown as inhibition of cAMP production of Glucagon peptide (human glucagon receptor; 10 nM test compound) [pmol/ml/μg prt] | Human Glucagon receptor antagonistic activity shown as inhibition of cAMP production of Glucagon peptide (human glucagon receptor; 100 nM test compound) [pmol/ml/μg prt] | Human Glucagon receptor antagonistic activity shown as inhibition of cAMP production of Glucagon peptide (human glucagon receptor; 1 μM test compound) [pmol/ml/μg prt] | Human Glucagon receptor antagonistic activity shown as inhibition of cAMP production of Glucagon peptide (human glucagon receptor; 10 μM test compound) [pmol/ml/μg prt] | % degradation of peptidomimetics in 24 h when incubated with DPP-IV enzyme (DPP IV) [%] | half-life at 2 μM (DPP IV) [h] | % degradation of peptidomimetics in 24 h when incubated with human plasma [2] [%] | half-life at 2 μM [2] [h] | % degradation of peptidomimetics in 24 h when incubated with simulated gastric fluid [3] [%] | % degradation of peptidomimetics in 24 h when incubated with simulated intestinal fluid [4] [%] | % degradation of peptidomimetics in 24 h when incubated with liver microsomes [5] [%] | also measured
CCc1cc(OC)ccc1-c1ccc(CC(CNC(CCCc2ccccc2)C(N)=O)NC[C@H](CC(=O)O)NC(=O)[C@H](CO)NC(=O)[C@@H](NC(=O)C(C)(Cc2ccccc2F)NC(=O)[C@@H](NC(=O)CNC(=O)C(CCC#N)NC(=O)C(C)(C)NC(=O)[C@@H](N)Cc2c[nH]cn2)[C@H](C)O)[C@H](C)O)cc1 (single isomer, unassigned) [compound 202] | 16.8 ± 0.20 | 22.7 ± 0.29 | 36.6 ± 0.31 | 99 ± 0.12 | 99 ± 0.15 | 99 ± 0.18 | 99 ± 0.03 | 99 ± 0.09 | 9 ± 0.14 | 6 ± 0.14 | 5 ± 0.13 | 3 ± 0.24 | 0 | 00 | > 24 | 00 | > 24 | 00 | 00 | 33 | half-life at 2 μM [3]: > 24 h; half-life at 2 μM [4]: > 24 h; half-life (t1/2) when incubated with liver microsomes [5]: (5) h
CCc1cc(OC)ccc1-c1ccc(CC(NC(=O)[C@H](CC(=O)O)NC(=O)[C@H](CO)NC(=O)[C@@H](NC(=O)C(C)(Cc2ccccc2F)NC(=O)[C@@H](NC(=O)CNC(=O)C(CCC#N)NC(=O)C(C)(C)NC(=O)[C@@H](N)Cc2c[nH]cn2)[C@H](C)O)[C@@H](C)O)C(=O)NC(CCCc2ccccc2)C(N)=O)cc1 (single isomer, unassigned) [compound 110] | 12.0 ± 0.14 | 14.3 ± 0.12 | 27.8 ± 0.32 | 38 ± 0.11 | 77 ± 0.16 | 85 ± 0.11 | 94 ± 0.08 | 97 ± 0.05 | 18 ± 0.07 | 16 ± 0.01 | 12 ± 0.03 | 8 ± 0.02 | 6 ± 0.08 | 00 | > 24 | 00 | > 24 | 43 | 00 | 84 | half-life at 2 μM [3]: 4 h; half-life at 2 μM [4]: > 24 h; half-life at 2 μM [5]: 2 h
CCc1cc(OC)ccc1-c1ccc(CC(NC(=O)[C@H](CC(=O)O)NC(=O)[C@H](CO)NC(=O)[C@@H](NC(=O)C(C)(Cc2ccccc2F)NC(=O)[C@@H](NC(=O)CNC(=O)C(CCC#N)NC(=O)C(C)(C)NC(=O)[C@@H](N)Cc2c[nH]cn2)[C@H](C)O)[C@H](C)O)C(=S)NC(CCCc2ccccc2)C(N)=O)cc1 (single isomer, unassigned) [compound 166] | 15.4 ± 0.14 | 21.2 ± 0.18 | 35.6 ± 0.17 | 96 ± 0.02 | 99 ± 0.46 | 99 ± 0.41 | 99 ± 0.66 | 99 ± 0.03 | 19 ± 0.03 | 17 ± 0.08 | 15 ± 0.01 | 14 ± 0.02 | 12 ± 0.11 | 86 | 9 | 70 | 8 | 15 | 41 | 77 | half-life (t1/2) when incubated with simulated gastric fluid [3]: (8) h; half-life (t1/2) when incubated with simulated intestinal fluid [4]: (6) h; half-life at 2 μM [5]: 1 h
CCc1cc(OC)ccc1-c1ccc(CC(NC(=O)[C@H](CC(=O)O)NC(=O)[C@H](CO)NC(=O)[C@@H](NC(=O)C(C)(Cc2ccccc2F)NC(=O)[C@@H](NC(=O)CNC(=O)C(CCC#N)NC(=O)C(C)(C)NC(=O)[C@@H](N)Cc2c[nH]cn2)[C@H](C)O)[C@@H](C)O)C(=O)NC(CCCc2ccccc2F)C(N)=O)cc1 (single isomer, unassigned) [compound 112] | 15.3 ± 0.19 | 21.2 ± 0.11 | 35.5 ± 0.19 | 39 ± 0.10 | 81 ± 0.08 | 89 ± 0.09 | 96 ± 0.11 | 99 ± 0.16 | 6 ± 0.01 | 5 ± 0.02 | 2 ± 0.13 | 0 | 0 | 00 | > 24 | 00 | > 24 | 49 | 00 | 82 | half-life at 2 μM [3]: 4 h; half-life at 2 μM [4]: > 24 h; half-life at 2 μM [5]: 2 h
CCc1cc(OC)ccc1-c1ccc(CC(NC(=O)[C@H](CC(=O)O)NC(=O)[C@H](CO)NC(=O)[C@@H](NC(=O)[C@H](Cc2ccccc2)NC(=O)[C@@H](NC(=O)CNC(=O)[C@H](CCC(N)=O)NC(=O)[C@H](CO)NC(=O)[C@@H](N)Cc2c[nH]cn2)[C@@H](C)O)[C@@H](C)O)C(=O)NC(CCCc2ccccc2C(F)(F)F)C(N)=O)cc1 (single isomer, unassigned) [compound 47] | 13.1 ± 0.11 | 14.9 ± 0.17 | 28.8 ± 0.44 | 55 ± 0.16 | 89 ± 0.05 | 93 ± 0.09 | 99 ± 0.02 | 99 ± 0.04 |  |  |  |  |  | 76 | 9 | 78 | 8 | 12 | 55 | 79 | half-life (t1/2) when incubated with simulated gastric fluid [3]: (8) h; half-life (t1/2) when incubated with simulated intestinal fluid [4]: (6) h; half-life at 2 μM [5]: 1 h
